From paper PMC8509428, “The Phenoxyalkyltriazine Antagonists for 5-HT6 Receptor with Promising Procognitive and Pharmacokinetic Properties In Vivo in Search for a Novel Therapeutic Approach to Dementia Diseases” (International Journal of Molecular Sciences, 2021)
Several values for one entry are separate records, joined by “and”; a condition that tells them apart may be missing. Identical values can stand only once. Counter-ions that a name gives are not always drawn. Like-named read-outs stand apart in the source and are kept apart here.

Tests used:
5-HT2A receptor = molecular target: T1, 5-HT2A receptor (Homo sapiens, UniProt P28223); experiment: Functional assay for 5-HT2A receptor (aequorin, CHO-K1 cells); assay type: cell-based
T1 construct: expressed in transfected cells; host or cells: CHO-K1

hepatoma HepG2 cell line = details: 50 µM; cited from earlier work
rats [1] = experiment: Exploratory activity measured in the EPM test; assay type: in vivo, rat; details: for Total Distance / X Ambulation / Y Ambulation: mean ± SEM
Description: The experiment was performed using an EPM apparatus (details see above). Total ambulation (the total distance covered by a rat, and ambulation along X and Y axis) was taken to discern drug effects on general activity from those on open-arm exploration, during a 5-min test period (i.e., the time equal to the observation period in the EPM test). Rats’ behavior was not videotaped during the test.

[2] = cited from earlier work
human 5-HT6R = details: ± SD; read-out: Ki 5-HT6 (converted); cited from earlier work
rats [3] = experiment: Elevated plus-maze (EPM) test; assay type: in vivo, rat; details: for Open Arms % of entries / Open Arms % of time / Open Arms Distance / Open Arms Entries / Open Arms Time: mean ± SEM
Source text: The testing procedure was based on a method described by. Plus-maze apparatus (an automated device produced by Campden Instruments Ltd. (Leicestershire, UK) made of durable, high density, non-porous black plastic, elevated to a height of 50 cm, consisted of two open arms (50 × 10 cm) and two closed arms (50 × 10 cm, and 30 cm high walls), arranged so that the two arms of each type were opposite each other. The floor of the plus-maze was made of infrared transparent material what means that there are no visible sensors. Plus-maze apparatus was connected to PC software by control chassis. The experiments were conducted in a darkened room, only the center of the maze was illuminated with low-intensity light (30 lux measured on the maze level). Each rat was gently placed in the center of the plus-maze, facing one of the closed arms, immediately after a 5-min adaptation period in a plastic black box (60 × 60 × 35 cm), to increase the overall activity in the EPM. During a 5-min test period, automated Motor Monitor System recorded the number of entries into the closed and open arms and the time spent in either type of arms. The device counted an effective arm-entry when the four paws of a rat were into any arm. The maze was thoroughly cleaned after each trial. The EPM test is an “unconditional” anxiety-like test based on rodents’ natural aversion to heights and open space.

[4] = test system: MK-801-induced memory deficits in rats; details: cited from earlier work
rats [5] = experiment: Forced swim test (FST); assay type: in vivo, rat; details: for Immobility Time: 60 min before test, mean ± SEM
Description: The experiment was carried out according to the method of [54]. On the first day of the experiment, the animals were gently individually placed in Plexiglas cylinders (40 cm high, 18 cm in diameter) containing 15 cm of water maintained at 23–25 °C for 15 min. On removal from water, the rats were placed for 30 min in a Plexiglas box under 60-W bulb to dry. On the following day (24 h later), the rats were replaced in the cylinder and the total duration of immobility was recorded during the whole 5-min test period. The immobility was assigned when no additional activity was observed other than that necessary to keep the rat’s head above the water. Fresh water was used for each animal.

[6] = molecular target: T2, human serotonin 5-HT6 receptor (Homo sapiens, UniProt P50406); set-up: host or cells: 1321N1; details: cited from earlier work
CYP3A4 = molecular target: T3, CYP3A4 (Homo sapiens, UniProt P08684); experiment: CYP3A4 P450-Glo assay; assay type: in vitro ADME; details: 10 μM of compound
T3 construct: purchased Promega
Description: The luminescent CYP3A4 P450-Glo™ Promega® (Madison, WI, USA) was used for the investigation of potential drug-drug interactions. All assays and protocols were described before. The compounds were tested in triplicate at the final concentrations in the range from 0.01 to 25 μM. The luminescent signal was measured by using a microplate reader EnSpire PerkinElmer (Waltham, MA, USA).

5-HT1AR = molecular target: T4, 5-HT1AR (Homo sapiens, UniProt P08908); experiment: Radioligand binding assay (RBA), 5-HT1AR; details: ± SD; displacement of [3H]-8-OHDPAT, HEK-293 cells; read-out: Ki 5-HT1A (converted)
T4 construct: expressed in transfected cells; host or cells: HEK-293
T4 sequence (P08908 1-422): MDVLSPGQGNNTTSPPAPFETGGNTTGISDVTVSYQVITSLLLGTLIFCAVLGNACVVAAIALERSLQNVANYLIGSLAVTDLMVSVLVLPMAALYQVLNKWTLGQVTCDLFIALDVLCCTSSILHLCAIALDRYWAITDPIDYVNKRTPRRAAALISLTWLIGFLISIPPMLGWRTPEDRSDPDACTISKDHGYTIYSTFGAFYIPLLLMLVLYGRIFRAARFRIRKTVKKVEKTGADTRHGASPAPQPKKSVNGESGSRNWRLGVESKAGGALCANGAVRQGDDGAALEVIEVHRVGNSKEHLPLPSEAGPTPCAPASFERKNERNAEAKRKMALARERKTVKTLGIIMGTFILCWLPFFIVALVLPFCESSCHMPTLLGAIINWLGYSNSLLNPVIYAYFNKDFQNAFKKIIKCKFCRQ
Description: The cells used in the radioligand binding assays receptor 5-HT1A were stably expressed in HEK-293 cells. Transfections were performed with the use of Lipofectamine 2000. The binding procedure was accomplished via the displacement of 2.5 nM [^3H]-8-OHDPAT (135.2 Ci/mmol) for 5-HT1AR. Each compound was tested in triplicate in seven to eight different concentrations (10^−11 to 10^−4 M). The inhibition constants (Ki) were calculated using the Cheng–Prusoff equation [45] and the results are expressed as the mean of at least two independent experiments.

[7] = test system: Salmonella Typhimurium TA100; assay type: cell-based
[8] = Bi-directional Caco-2 permeability assay; assay type: in vitro ADME; details: human, pH 7.4, Caco-2, 10 µM, triplicate
5-HT7R = details: ± SD; read-out: Ki 5-HT7 (converted); cited from earlier work
dopaminergic receptor D2 = details: ± SD; cited from earlier work
rats [9] = details: i.p.; ref 10 (AG-1), 11 (AG-2), 12 (AN-1), 13 (AN-2); cited from earlier work
5-HT6R = details: Figure 1; ref 10 (AG-1), 11 (AG-2), 12 (AN-1), 13 (AN-2); cited from earlier work
[10] = test system: MK-801-induced memory deficits in rats; experiment: Novel object recognition (NOR) test, MK-801-induced memory impairment; assay type: in vivo, rat; details: MK-801 0.1 mg/kg i.p. + vehicle; 0.1 mg/kg
Description: Five days before the experiment, the rats were transferred to the laboratory, labelled and, thereafter, left to acclimate to the new environment. The animals were handling every five days before experiments to minimize the stress reaction. The protocol was adapted from the original work. The test session comprising of two trials separated by an inter-trial interval (ITI) of 1 h was carried out after 2 days of the training session. During the first trial (familiarization, T1) two identical objects (A1 and A2) were presented in the opposite corners of the open field, approximately 10 cm from the walls. During the second trial (recognition, T2) one of the A objects was replaced by a novel object B, so that the animals were presented with the A = familiar and B = novel objects. Both trials lasted for 3 min and the animals were returned to their home cages after T1.
The objects used were the metal Coca-Cola cans and the glass jars filled with sand. […] The sequence of presentations and the location of the objects were randomly assigned to each rat. After each measurement, the floor was cleaned and dried.
The animals explored the objects by looking, licking, sniffing or touching the object but not when leaning against, standing or sitting on the object. Any rat exploring the two objects for less than 5 s within 3 min of T1 or T2 was eliminated from the study. The exploration time of the objects was measured by a blind experimenter. Based on the exploration time (E) of two objects during T2, the discrimination index (DI) was calculated according to the formula: DI = (EB − EA)/(EA + […]). Using this metric, scores approaching zero reflects no preference while positive values reflect a preference for the novel object and negative numbers reflect a preference for the familiar.
MK-801, used to attenuate learning, was administered at the dose of 0.1 mg/kg (i.p.) 30 min before the familiarization phase (T1), while investigated compounds were given 60 min before T1 session. In such scheme of experiment we could observe the impact of investigated compounds on the one type of rats’ memory—episodic memory and one phase of memory process—[…].
The total exploration time in T2 was used to express the influence of the treatment on the exploratory activity of the animals.

[11] = molecular target: T2, human serotonin 5-HT6 receptor; experiment: Functional assay for 5-HT6 receptor (cAMP, 1321N1 cells)

T2 sequence (P50406 whole entry): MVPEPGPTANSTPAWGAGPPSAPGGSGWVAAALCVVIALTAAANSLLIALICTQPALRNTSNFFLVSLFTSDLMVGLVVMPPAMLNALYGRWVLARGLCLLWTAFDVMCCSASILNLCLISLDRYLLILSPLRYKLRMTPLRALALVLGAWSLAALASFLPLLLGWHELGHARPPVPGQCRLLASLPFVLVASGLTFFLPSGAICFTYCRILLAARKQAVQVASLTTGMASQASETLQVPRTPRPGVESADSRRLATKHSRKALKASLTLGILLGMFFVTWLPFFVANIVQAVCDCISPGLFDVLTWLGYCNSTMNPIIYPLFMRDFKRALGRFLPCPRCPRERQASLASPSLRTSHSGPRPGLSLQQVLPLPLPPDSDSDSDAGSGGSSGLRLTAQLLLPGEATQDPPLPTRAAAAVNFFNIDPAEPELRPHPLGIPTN
T1 sequence (P28223 whole entry): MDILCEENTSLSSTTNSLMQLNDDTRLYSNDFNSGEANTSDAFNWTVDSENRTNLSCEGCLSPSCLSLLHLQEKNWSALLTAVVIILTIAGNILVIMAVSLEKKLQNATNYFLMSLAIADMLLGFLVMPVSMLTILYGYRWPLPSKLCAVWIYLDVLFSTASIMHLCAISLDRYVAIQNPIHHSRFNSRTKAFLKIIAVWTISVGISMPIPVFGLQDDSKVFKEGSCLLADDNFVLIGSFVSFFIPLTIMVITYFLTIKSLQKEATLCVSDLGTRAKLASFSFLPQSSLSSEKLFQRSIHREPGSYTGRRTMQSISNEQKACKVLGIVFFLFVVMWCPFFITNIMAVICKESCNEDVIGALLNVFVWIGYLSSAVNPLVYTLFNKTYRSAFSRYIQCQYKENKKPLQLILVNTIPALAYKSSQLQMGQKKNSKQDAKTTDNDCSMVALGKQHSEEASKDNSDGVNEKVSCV
T3 sequence (P08684 whole entry): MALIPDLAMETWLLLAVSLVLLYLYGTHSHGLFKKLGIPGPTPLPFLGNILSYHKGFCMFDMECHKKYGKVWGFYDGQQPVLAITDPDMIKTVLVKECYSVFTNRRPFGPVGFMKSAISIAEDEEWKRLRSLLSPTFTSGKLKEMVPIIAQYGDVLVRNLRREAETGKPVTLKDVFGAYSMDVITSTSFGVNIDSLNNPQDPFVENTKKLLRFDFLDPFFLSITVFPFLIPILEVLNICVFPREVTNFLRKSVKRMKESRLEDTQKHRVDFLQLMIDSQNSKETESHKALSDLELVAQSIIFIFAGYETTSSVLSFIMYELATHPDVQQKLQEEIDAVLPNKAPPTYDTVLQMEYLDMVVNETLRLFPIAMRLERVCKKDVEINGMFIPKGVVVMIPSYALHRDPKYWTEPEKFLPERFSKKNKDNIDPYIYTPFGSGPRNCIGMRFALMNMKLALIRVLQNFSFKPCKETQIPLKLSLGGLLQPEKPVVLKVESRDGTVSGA

CCC(Oc1cc(Cl)ccc1Cl)c1nc(N)nc(N2CCN(C)CC2)n1 (racemic) [Compound 1, (RS)-4-[1-(2,5-dichlorophenoxy)propyl]-6-(4-methylpiperazin-1-yl)-1,3,5-triazin-2-amine]
Emax (5-HT2A receptor; Table S2, read-out: 5-HT2A Antagonist mode Emax): 0% | Emax (5-HT2A receptor; read-out: 5-HT2AR Agonist Mode Emax): 58 ± 9.7% | hepatotoxic effect, HepG2 (hepatoma HepG2 cell line): weak hepatotoxic effect | Total Distance (rats [1]; 1 mg/kg i.p.): 4520 ± 168 cm | X Ambulation (rats [1]; 1 mg/kg i.p.): 172 ± 6 | Y Ambulation (rats [1]; 1 mg/kg i.p.): 99 ± 6 | Total Distance (rats [1]; 3 mg/kg i.p.): 3995 ± 218 cm | X Ambulation (rats [1]; 3 mg/kg i.p.): 146 ± 10 | Y Ambulation (rats [1]; 3 mg/kg i.p.): 82 ± 7 | decrease of total distance (rats [1]; 10 mg/kg i.p.): 20% | Total Distance (rats [1]; 10 mg/kg i.p.): 3681 ± 256; p < 0.05 F(3,24) = 4.5291; p < 0.05 cm | X Ambulation (rats [1]; 10 mg/kg i.p.): 140 ± 11 F(3,24) = 3.8035; p < 0.05 | Y Ambulation (rats [1]; 10 mg/kg i.p.): 83 ± 8 F(3,24) = 1.9215; NS | number of metabolites formed ([2]; RLMs, 120 min): six | parent biotransformed ([2]; RLMs, 120 min): more than 90% | parent remaining (metabolic stability) ([2]; compound 1, RLMs): < 10% | Ki (human 5-HT6R): 6 ± 1 nM | Open Arms % of entries (rats [3]; 1 mg/kg i.p.): 32.59 ± 4.23% | Open Arms % of time (rats [3]; 1 mg/kg i.p.): 25.76 ± 6.11% | Open Arms Distance (rats [3]; 1 mg/kg i.p.): 788 ± 175 cm | Open Arms Entries (rats [3]; 1 mg/kg i.p.): 9.88 ± 1.99 | Open Arms Time (rats [3]; 1 mg/kg i.p.): 58.90 ± 14.20 s | Open Arms % of entries (rats [3]; 3 mg/kg i.p.): 29.49 ± 3.48% | Open Arms % of time (rats [3]; 3 mg/kg i.p.): 10.27 ± 2.05% | Open Arms Distance (rats [3]; 3 mg/kg i.p.): 307 ± 78 cm | Open Arms Entries (rats [3]; 3 mg/kg i.p.): 6.14 ± 0.77 | Open Arms Time (rats [3]; 3 mg/kg i.p.): 24.81 ± 5.24 s | Open Arms % of entries (rats [3]; 10 mg/kg i.p.): 42.23 ± 9.09% | Open Arms % of time (rats [3]; 10 mg/kg i.p.): 18.34 ± 4.19% | Open Arms Distance (rats [3]; 10 mg/kg i.p.): 538 ± 104 cm | Open Arms Entries (rats [3]; 10 mg/kg i.p.): 7.20 ± 1.66 | Open Arms Time (rats [3]; 10 mg/kg i.p.): 43.36 ± 9.08 s | anxiolytic-like activity in EPM test (rats [3]; i.p., 60 min before test): did not show anxiolytic-like activity | effective dose in NOR test ([4]; i.p.): 3 mg/kg | Immobility Time (rats [5]; 1 mg/kg i.p.): 241.80 ± 18.7 s | decrease of immobility time vs vehicle-treated group (rats [5]; 3 mg/kg): about 30% | Immobility Time (rats [5]; 3 mg/kg i.p.): 175.29 ± 18.1 s | decrease of immobility time vs vehicle-treated group (rats [5]; 10 mg/kg): about 36% | Immobility Time (rats [5]; 10 mg/kg i.p.): 163.63 ± 11.2 s | 5-HT6 Antagonist Mode Emax ([6]; Table S1, compound 1): 98% | 5-HT6R Agonist Mode Emax ([6]; compound 1, previous functional assays): 4.00 ± 0.00% | CYP3A4 activity remaining (CYP3A4): 44% | Ki (5-HT1AR): 4760 ± 1190 nM | Binomial B-Value ([7]; 1 µM): 0.0707 | Number of Revertants ± SD ([7]; 1 µM): 2.00 ± 1.00 | Binomial B-Value ([7]; 10 µM): 0.0707 | Number of Revertants ± SD ([7]; 10 µM): 2.00 ± 1.00 | Papp A→B at 2 h, 10 µM [8]: 14.2 ± 0.36 ×10⁻⁶ cm/s | Papp B→A at 2 h, 10 µM [8]: 22.2 ± 1.92 ×10⁻⁶ cm/s | Ki (5-HT7R): 5710 ± 967 nM | Ki (dopaminergic receptor D2): 320 ± 19 nM

CN(C)CCc1c[nH]c2ccc(NS(=O)(=O)c3c(Cl)nc4sccn34)cc12 [AG-1]
dose with procognitive effect in the NOR test (rats [9]): 2.5 mg/kg

NCCc1cn(S(=O)(=O)c2c(Cl)nc3sccn23)c2ccccc12 [AG-2]
dose with procognitive effect in the NOR test (rats [9]): 3 mg/kg

COc1ccc2c(c1)c(C1=CCNCC1)cn2S(=O)(=O)c1cncc2ccccc12 [AN-1]
Ki (5-HT6R): 3 nM | dose with procognitive effect in the NOR test (rats [9]): 1 mg/kg

CN(C)CCn1cnc2ccc(NS(=O)(=O)c3ccc4c(Cl)cccc4c3)cc21 [AN-2]
Ki (5-HT6R): 9 nM | dose with procognitive effect in the NOR test (rats [9]): 1 mg/kg

C[C@]12N[C@H](Cc3ccccc31)c1ccccc12 [MK-801, MK-801 maleate, reference compound]
Total Exploratory Time in T2 Session [10]: 42.00 ± 3.13 s and 47.07 ± 3.89 s | Discrimination Index ([4]; MK-801 0.1 mg/kg i.p. + vehicle): −0.07 ± 0.01

COc1ccc(NS(=O)(=O)c2ccc(I)cc2)cc1N1CCN(C)CC1 [SB258585]
5-HT6 Antagonist Mode Emax ([11]; Table S1, % of reference antagonist (SB258585 10^-5 M)): 100% | 5-HT6R Agonist Mode Emax ([11]; ± SEM, % of maximal agonist response (Serotonin 10^−5 M)): 2.00 ± 0.50%
